Measured values: US20260250289A1, “BICYCLIC HETEROCYCLES AND THEIR USE AS WRN INHIBITORS” (Novartis AG, priority 2022, published 2026)

What was measured:
DLD1-WRN-KO cells = assay: Proliferation assay DLD1-WRN-KO (CellTiterGlo, off-target effects); assay type: cell-based; settings: 96 hours, geometric mean of at least 2
Method in brief: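 DLD1 cells with CRISPR knockout of WRN were exposed overnight-seeded to eight 3-fold compound dilutions (0.1% DMSO) for 96 h at 37 °C. Viability was read as ATP by CellTiterGlo luminescence against a day-0 plate, giving GI50 and residual viability at top concentration.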

[1] = target: T1, WRN helicase (aa N517-P1238) (Homo sapiens, UniProt Q14191); assay: WRN ATPase assay (DNA dependent ATP hydrolysis, ADP-Glo); assay type: biochemical; settings: 3 hours pre-incubation, 300 micromolar ATP, FLAP26 DNA; geometric mean of at least 2
T1 construct: The core helicase motif of the WRN protein (aa N517-P1238) was produced for this assay; His (N); ZZ (N); 3C protease cleavage site (N); made in house; host or cells: Sf21 insect cells (baculovirus; virus and BIICs made in SF9)
Method in brief: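 DNA-dependent ATP hydrolysis detected as ADP by ADP-Glo luminescence, using 300 μM ATP, 0.2 nM FLAP26 substrate and 10 nM WRN aa N517-P1238 (Tris pH 7.5 buffer, 2 mM MgCl2, 50 mM NaCl). IC50s fitted from normalized duplicate half-log dilutions; reported as geometric means of at least 2 replicates.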

SW48 cells = assay: Proliferation assay SW48 (CellTiterGlo); assay type: cell-based; settings: Homo sapiens, SW48, 96 h, SW48 colon carcinoma cells, 96 hours, CellTiterGlo; geometric mean of at least 2; read-out: Proliferation Assay SW48 GI50
Method in brief: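 Read-out is CellTiterGlo luminescence after 96 hours of compound exposure, with % growth calculated against day-0 and vehicle-treated ATP levels. SW48 seeded at 2,000 cells/well, dosed next day with eight 3-fold serial dilutions, 0.1% DMSO. GI50 reported as geometric mean, at least 2 replicates.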

T1 sequence (Q14191 517-1238): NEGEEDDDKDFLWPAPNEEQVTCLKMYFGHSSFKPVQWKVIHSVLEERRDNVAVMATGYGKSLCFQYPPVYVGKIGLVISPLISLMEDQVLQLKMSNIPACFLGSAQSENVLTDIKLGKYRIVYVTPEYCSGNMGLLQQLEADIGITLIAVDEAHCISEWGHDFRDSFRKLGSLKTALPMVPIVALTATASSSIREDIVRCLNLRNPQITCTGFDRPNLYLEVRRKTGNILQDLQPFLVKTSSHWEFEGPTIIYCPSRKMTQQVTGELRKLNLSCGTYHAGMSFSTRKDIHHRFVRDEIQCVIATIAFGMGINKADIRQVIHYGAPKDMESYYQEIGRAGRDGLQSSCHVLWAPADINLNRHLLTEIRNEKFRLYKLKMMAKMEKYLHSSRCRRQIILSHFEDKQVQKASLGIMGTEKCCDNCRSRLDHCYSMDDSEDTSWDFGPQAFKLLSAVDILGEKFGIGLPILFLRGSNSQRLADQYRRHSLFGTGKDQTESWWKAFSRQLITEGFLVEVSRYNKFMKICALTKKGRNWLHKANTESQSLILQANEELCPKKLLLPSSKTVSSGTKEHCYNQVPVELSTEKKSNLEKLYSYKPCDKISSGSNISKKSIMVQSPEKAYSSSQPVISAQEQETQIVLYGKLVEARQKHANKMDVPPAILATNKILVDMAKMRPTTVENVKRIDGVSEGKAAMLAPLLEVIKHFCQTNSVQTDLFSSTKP

GI50 (DLD1-WRN-KO cells) [nM] | IC50 [1] [nM] | GI50 (SW48 cells) [nM] | Structure (SMILES)
> 10000 | 500 | 4000 | CC(=O)N1CCN(c2c(C)n(CC(=O)Nc3ccc(C(F)(F)F)cc3F)c3nc(C4=CCOCC4)nn3c2=O)CC1 [Example 85, 2-(6-(4-acetylpiperazin-1-yl)-2-(3,6-dihydro-2H-pyran-4-yl)-5-methyl-7-oxo-[1,2,4]triazolo[1,5-a]pyrimidin-4(7H)-yl)-N-(2-fluoro-4-(trifluoromethyl)phenyl)acetamide]
> 10000 | 500 | 4000 | CC(=O)N1CCN(c2c(C)n(CC(=O)Nc3cc(Cl)c(C(F)(F)F)nc3C)c3nc(C4=CCOCC4)nn3c2=O)CC1 [Example 87, 2-(6-(4-acetylpiperazin-1-yl)-2-(3,6-dihydro-2H-pyran-4-yl)-5-methyl-7-oxo-[1,2,4]triazolo[1,5-a]pyrimidin-4(7H)-yl)-N-(5-chloro-2-methyl-6-(trifluoromethyl)pyridin-3-yl)acetamide]
> 10000 | 600 | 3000 | CC(=O)N1CCN(c2c(C)n(CC(=O)Nc3cc(C)c(C(F)(F)F)cc3Cl)c3nc(C4=CCOCC4)nn3c2=O)CC1 [Example 89, 2-(6-(4-acetylpiperazin-1-yl)-2-(3,6-dihydro-2H-pyran-4-yl)-5-methyl-7-oxo-[1,2,4]triazolo[1,5-a]pyrimidin-4(7H)-yl)-N-(2-chloro-5-methyl-4-(trifluoromethyl)phenyl)acetamide]
> 10000 | 700 | 3000 | CC(=O)N1CCN(c2c(C)n(CC(=O)Nc3cc(F)c(C(F)(F)F)cc3Cl)c3nc(C4=CCOCC4)nn3c2=O)CC1 [Example 91, 2-(6-(4-acetylpiperazin-1-yl)-2-(3,6-dihydro-2H-pyran-4-yl)-5-methyl-7-oxo-[1,2,4]triazolo[1,5-a]pyrimidin-4(7H)-yl)-N-(2-chloro-5-fluoro-4-(trifluoromethyl)phenyl)acetamide]
> 10000 | 800 | 3000 | CC(=O)N1CCN(c2c(C)n(CC(=O)Nc3c(C)cc(C(F)(F)F)cc3Cl)c3nc(C4=CCOCC4)nn3c2=O)CC1 [Example 96, 2-(6-(4-acetylpiperazin-1-yl)-2-(3,6-dihydro-2H-pyran-4-yl)-5-methyl-7-oxo-[1,2,4]triazolo[1,5-a]pyrimidin-4(7H)-yl)-N-(2-chloro-6-methyl-4-(trifluoromethyl)phenyl)acetamide]
> 10000 | 1000 | 4000 | CC(=O)N1CCN(c2c(C)n(CC(=O)Nc3cc(F)c(Cl)cc3Cl)c3nc(C4=CCOCC4)nn3c2=O)CC1 [Example 97, 2-(6-(4-acetylpiperazin-1-yl)-2-(3,6-dihydro-2H-pyran-4-yl)-5-methyl-7-oxo-[1,2,4]triazolo[1,5-a]pyrimidin-4(7H)-yl)-N-(2,4-dichloro-5-fluorophenyl)acetamide]
> 10000 | 1000 | 6000 | CC(=O)N1CCN(c2c(C)n(CC(=O)Nc3ccc(C(F)(F)F)nc3Cl)c3nc(C4=CCOCC4)nn3c2=O)CC1 [Example 98, 2-(6-(4-acetylpiperazin-1-yl)-2-(3,6-dihydro-2H-pyran-4-yl)-5-methyl-7-oxo-[1,2,4]triazolo[1,5-a]pyrimidin-4(7H)-yl)-N-(2-chloro-6-(trifluoromethyl)pyridin-3-yl)acetamide]
> 10000 | 2000 | 6000 | CC(=O)N1CCN(c2c(C)n(CC(=O)Nc3cnc(C(F)(F)F)cc3Cl)c3nc(C4=CCOCC4)nn3c2=O)CC1 [Example 99, 2-(6-(4-acetylpiperazin-1-yl)-2-(3,6-dihydro-2H-pyran-4-yl)-5-methyl-7-oxo-[1,2,4]triazolo[1,5-a]pyrimidin-4(7H)-yl)-N-(4-chloro-6-(trifluoromethyl)pyridin-3-yl)acetamide]
> 10000 | 2000 | 10000 | CC(=O)N1CCN(c2c(C)n(CC(=O)Nc3cc(F)c(C(F)(F)F)nc3Cl)c3nc(C4=CCOCC4)nn3c2=O)CC1 [Example 101, 2-(6-(4-acetylpiperazin-1-yl)-2-(3,6-dihydro-2H-pyran-4-yl)-5-methyl-7-oxo-[1,2,4]triazolo[1,5-a]pyrimidin-4(7H)-yl)-N-(2-chloro-5-fluoro-6-(trifluoromethyl)pyridin-3-yl)acetamide]

Further lines, the compound ahead of its results:

Structure (SMILES) | GI50 (DLD1-WRN-KO cells) [nM] | IC50 [1] [nM] | GI50 (SW48 cells) [nM]
[2H]C([2H])(C(=O)Nc1ccc(C(F)(F)F)cc1)n1c(CC)c(N2CCN(C(C)=O)CC2)c(=O)n2nc(C3=CCOCC3)nc12 [Example 82, 2-(6-(4-acetylpiperazin-1-yl)-2-(3,6-dihydro-2H-pyran-4-yl)-5-ethyl-7-oxo-[1,2,4]triazolo[1,5-a]pyrimidin-4(7H)-yl)-N-(4-(trifluoromethyl)phenyl)acetamide-2,2-d2] | > 10000 | 300 | 2000
CC(=O)N1CCN(c2c(C)n(CC(=O)Nc3cc(F)c(C(F)(F)F)cc3C)c3nc(C4=CCOCC4)nn3c2=O)CC1 [Example 83, 2-(6-(4-acetylpiperazin-1-yl)-2-(3,6-dihydro-2H-pyran-4-yl)-5-methyl-7-oxo-[1,2,4]triazolo[1,5-a]pyrimidin-4(7H)-yl)-N-(5-fluoro-2-methyl-4-(trifluoromethyl)phenyl)acetamide] | > 10000 | 300 | 2000
CC(=O)N1CCN(c2c(C)n(CC(=O)Nc3ccc(C(F)(F)F)c(F)c3C)c3nc(C4=CCOCC4)nn3c2=O)CC1 [Example 84, 2-(6-(4-acetylpiperazin-1-yl)-2-(3,6-dihydro-2H-pyran-4-yl)-5-methyl-7-oxo-[1,2,4]triazolo[1,5-a]pyrimidin-4(7H)-yl)-N-(3-fluoro-2-methyl-4-(trifluoromethyl)phenyl)acetamide] | > 10000 | 300 | 1000
CCc1c(N2CCN(C(C)=O)CC2)c(=O)n2nc(C3=CCOCC3)nc2n1CC(=O)Nc1ccc(C(F)(F)F)cc1F [Example 88, 2-(6-(4-acetylpiperazin-1-yl)-2-(3,6-dihydro-2H-pyran-4-yl)-5-ethyl-7-oxo-[1,2,4]triazolo[1,5-a]pyrimidin-4(7H)-yl)-N-(2-fluoro-4-(trifluoromethyl)phenyl)acetamide] | > 10000 | 500 | 3000
CC(=O)N1CCN(c2c(C)n(CC(=O)Nc3ccc(C(F)(F)F)c(F)c3)c3nc(C4=CCOCC4)nn3c2=O)CC1 [Example 90, 2-(6-(4-acetylpiperazin-1-yl)-2-(3,6-dihydro-2H-pyran-4-yl)-5-methyl-7-oxo-[1,2,4]triazolo[1,5-a]pyrimidin-4(7H)-yl)-N-(3-fluoro-4-(trifluoromethyl)phenyl)acetamide] | > 10000 | 600 | 4000
CCc1ccc(NC(=O)Cn2c(C)c(N3CCN(C(C)=O)CC3)c(=O)n3nc(C4=CCOCC4)nc23)cc1F [Example 92, 2-(6-(4-acetylpiperazin-1-yl)-2-(3,6-dihydro-2H-pyran-4-yl)-5-methyl-7-oxo-[1,2,4]triazolo[1,5-a]pyrimidin-4(7H)-yl)-N-(4-ethyl-3-fluorophenyl)acetamide] | > 10000 | 700 | 4000
CC(=O)N1CCN(c2c(C)n(CC(=O)Nc3cc(F)c(C(F)F)cc3C)c3nc(C4=CCOCC4)nn3c2=O)CC1 [Example 94, 2-(6-(4-acetylpiperazin-1-yl)-2-(3,6-dihydro-2H-pyran-4-yl)-5-methyl-7-oxo-[1,2,4]triazolo[1,5-a]pyrimidin-4(7H)-yl)-N-(4-(difluoromethyl)-5-fluoro-2-methylphenyl)acetamide] | > 10000 | 700 | 3000
CC(=O)N1CCN(c2c(C)n(CC(=O)Nc3ccc(C(F)(F)F)cc3)c3nc(-c4ccc(CN(C)C(=O)OC(C)(C)C)cc4)nn3c2=O)CC1 [Example 95, tert-butyl (4-(6-(4-acetylpiperazin-1-yl)-5-methyl-7-oxo-4-(2-oxo-2-((4-(trifluoromethyl)phenyl)amino)ethyl)-4,7-dihydro-[1,2,4]triazolo[1,5-a]pyrimidin-2-yl)benzyl)(methyl)carbamate] | > 10000 | 800 | 2000
CC(=O)N1CCN(c2c(C)n(CC(=O)Nc3cc(Cl)c(C)cc3Cl)c3nc(C4=CCOCC4)nn3c2=O)CC1 [Example 100, 2-(6-(4-acetylpiperazin-1-yl)-2-(3,6-dihydro-2H-pyran-4-yl)-5-methyl-7-oxo-[1,2,4]triazolo[1,5-a]pyrimidin-4(7H)-yl)-N-(2,5-dichloro-4-methylphenyl)acetamide] | > 10000 | 2000 | 4000
CC(=O)N1CCN(c2c(C)n(CC(=O)Nc3ccc(Cl)c(Cl)c3)c3nc(-c4ccc(CN(C)C(=O)OC5CC/C=C/CCC5)cc4)nn3c2=O)CC1 (stereo not drawn) [Example 102, (E)-cyclooct-4-en-1-yl (4-(6-(4-acetylpiperazin-1-yl)-4-(2-((3,4-dichlorophenyl)amino)-2-oxoethyl)-5-methyl-7-oxo-4,7-dihydro-[1,2,4]triazolo[1,5-a]pyrimidin-2-yl)benzyl)(methyl)carbamate] | 5000 | > 3000 | 7000
